Assay results published in ChEMBL document CHEMBL3227945, “Synthesis of all the stereoisomers of statine (4-amino-3-hydroxy-6-methylheptanoic acid). Inhibition of pepsin activity by N-carbobenzoxy-L-valyl-L-valyl-statine derived from the four stereoisomers” (J Med Chem, 1979).
Converted amounts (≈) assume the structure as drawn.

Legend:
Sus scrofa [1] = species on record: Sus scrofa; assay: Inhibition of porcine pepsin activity assessed as hydrolysis of N-Cbz-L-Pheylalanyl-L-Tyrosine substrate
Sus scrofa [2] = species on record: Sus scrofa; assay: Inhibition of porcine pepsin activity assessed as hydrolysis of 0.5% hemoglobin solution substrate after 1 hr

Row | ID50 (Sus scrofa [1]) [µg/mL] | ID50 (Sus scrofa [2]) [µg/mL] | Compound
1 | 2 (≈ 2.92 µM) | 0.0052 (≈ 0.00758 µM) | CC(C)CC(=O)N[C@H](C(=O)N[C@H](C(=O)N[C@@H](CC(C)C)[C@@H](O)CC(=O)N[C@@H](C)C(=O)N[C@@H](CC(C)C)[C@@H](O)CC(=O)O)C(C)C)C(C)C
2 | 1 (≈ 1.97 µM) | 0.1 (≈ 0.197 µM) | CC(C)C[C@H](NC(=O)[C@@H](NC(=O)[C@@H](NC(=O)OCc1ccccc1)C(C)C)C(C)C)[C@@H](O)CC(=O)O

More lines, now with the values behind:

Row | Compound | ID50 (Sus scrofa [1]) [µg/mL] | ID50 (Sus scrofa [2]) [µg/mL]
3 | CC(C)C[C@H](NC(=O)[C@@H](NC(=O)[C@@H](NC(=O)OCc1ccccc1)C(C)C)C(C)C)[C@H](O)CC(=O)O | 12 (≈ 23.6 µM) | 21 (≈ 41.4 µM)
4 | CC(C)C[C@@H](NC(=O)[C@@H](NC(=O)[C@@H](NC(=O)OCc1ccccc1)C(C)C)C(C)C)[C@H](O)CC(=O)O | 42 (≈ 82.7 µM) | 18 (≈ 35.5 µM)
5 | CC(C)C[C@@H](NC(=O)[C@@H](NC(=O)[C@@H](NC(=O)OCc1ccccc1)C(C)C)C(C)C)[C@@H](O)CC(=O)O | 219 (≈ 431 µM) | 224 (≈ 441 µM)
